The results in this text go back to ChEMBL document CHEMBL1201862, “PubChem BioAssay data set” (2004).

What all share (assay): inhibition of tumour cell growth, NCI panel, 48 h
In test [1] the test system is 786-0.
Test [2] concerns BT-549.
Test [3] deals with COLO 205.
The subject of test [4] is DMS-273.
The test system of test [5] is DU-145.
The subject of test [6] is Hs-578T.
Test [7] deals with K562.
Test [8] concerns M14.
For test [9], the system named is MDA-N.
The test system of test [10] is NCI-H226.
Test [11] relates to NCI-H23.
Test [12] relates to NCI/ADR-RES.
Test [13] concerns OVCAR-4.
Test [14] concerns OVCAR-5.
The subject of test [15] is PC-3.
Test [16] deals with SF-268.
The test system of test [17] is SK-MEL-28.
Test [18] deals with SK-OV-3.
The test system of test [19] is SNB-75.
The test system of test [20] is TK-10.

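Grown in 96-well plates, cells were treated for 48 hours with each compound at five concentrations. Insufficient inhibition: endpoint recorded as highest concentration tested. GI50: concentration for 50% inhibition of growth.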 Active and inactive are the calls of the source. Cut-off read from the data, not from the text of the source: active = GI50 up to about 1.1 µM and inactive = higher.

For `COc1ccc(Cc2cc(OC)c(OC)c(OC)c2)cc1O`, the GI50 in test [1] was 0.116 µM (active); in test [2], < 0.01 µM (active); in test [3] it was > 40.2 µM (inactive); in [4], 0.0713 µM (active); in test [5], 0.0231 µM (active); in test [6] it was 0.0137 µM (active). The GI50 in test [7] was 0.0161 µM (active); in [8], 0.0255 µM (active); in test [9] it was < 0.01 µM (active); in test [10], 36.7 µM (inactive); in [11], 0.101 µM (active); in test [12], < 0.01 µM (active). For the same compound, the GI50 was 42.5 µM (inactive) in [13]; 68.1 µM (inactive) in test [14]; < 0.0171 µM (active) in [15]; 0.122 µM (active) in test [16]; < 0.0169 µM (active) in test [17]; 0.274 µM (active) in test [18]. In addition, the figures for the GI50 in test [19] and in test [20] were < 0.01 µM (active) and > 90.4 µM (inactive), respectively.

On to `COc1cc2c(c(OC)c1OC)-c1ccc(OC)c(=O)cc1C(NC(=O)COc1ccccc1)CC2` (stereo unspecified), for which the GI50 in test [1], in [2], in test [3], in [4], in [5] and in test [6] was < 0.01 µM (active) throughout. Further, the GI50 in test [7] was < 0.0208 µM (active); in [8], < 0.01 µM (active); in test [9], < 0.01 µM (active); in [10] it was < 0.0372 µM (active); in test [11], < 0.01 µM (active); in test [12], 0.0546 µM (active). In addition, the GI50 was 3.11 µM (inactive) in test [13]; 0.3 µM (active) in test [14]; < 0.01 µM (active) in [15]; < 0.01 µM (active) in test [16]; 0.0498 µM (active) in test [17]; 0.0282 µM (active) in test [18]. Moreover, the GI50 in test [19] was < 0.01 µM (active); in test [20] it was 0.627 µM (active).

On to `CC1CCCC(C(O)CC2CC(=O)N(c3ccccc3)C(=O)C2)C1=O` (stereo unspecified), for which the GI50 in test [1], in test [3], in test [4], in test [7], in [8] and in test [10] was > 100 µM (inactive) each time. For the same compound, the GI50 in test [11], in test [13], in [14], in [16], in [17] and in [18] was > 100 µM (inactive) throughout. In addition, the GI50 in test [19] and in test [20] was > 100 µM (inactive) each time.

For `O=[N+]([O-])c1ccc(-n2nnc(C3=NCCN3)c2-c2ccccc2)cc1`, the GI50 in [1], in test [3], in [4], in test [7], in test [8] and in test [10] was > 100 µM (inactive) in each case. For the same compound, the GI50 in test [11], in [13], in test [14], in test [16], in test [17] and in test [18] was > 100 µM (inactive) each time. Moreover, the GI50 in test [19] and in test [20] was > 100 µM (inactive) each time.

For `COC(=O)c1c[nH]c2nc(N3CCOCC3)nn2c1=O`, the GI50 in test [1], in test [3], in [4], in test [7], in test [8] and in test [10] was > 100 µM (inactive) in each case. Also, the GI50 in test [11], in test [13], in test [14], in [16], in test [17] and in [18] was > 100 µM (inactive) each time. Further, the GI50 in test [19] and in [20] was > 100 µM (inactive) each time.

In the case of `CC1=C(CC2C(=O)N(c3ccccc3)S(=O)(=O)NC2C)C(=O)N(c2ccccc2)S(=O)(=O)N1C` (stereo unspecified), the GI50 in [1], in test [3], in test [4], in [7], in test [8] and in test [10] was > 100 µM (inactive) in each case. Moreover, the GI50 in test [11], in test [13], in test [14], in test [16], in [17] and in [18] was > 100 µM (inactive) throughout. The GI50 in test [19] and in test [20] was > 100 µM (inactive) throughout.

As for `CCOc1ccccc1NC(=O)C1=C(C)NC(C)=C(C(=O)Nc2ccccc2OCC)C1c1cccc([N+](=O)[O-])c1`, the GI50 was 57.9 µM (inactive) in test [1]; > 100 µM (inactive) in [3]; 72.1 µM (inactive) in test [4]; 28.2 µM (inactive) in test [7]; > 100 µM (inactive) in test [8]; 80.4 µM (inactive) in test [10]. The GI50 was > 100 µM (inactive) in test [11]; 14.2 µM (inactive) in [13]; > 100 µM (inactive) in [14]; > 100 µM (inactive) in test [16]; > 100 µM (inactive) in test [17]; > 100 µM (inactive) in test [18]. In addition, the values for the GI50 in test [19] and in test [20] were 11.6 µM (inactive) and > 100 µM (inactive), respectively.

For the compound `CC(C)N(C(=O)C12C3C4C1C1C2C3C41I)C(C)C` (stereo unspecified), the GI50 in test [1], in test [3], in [4], in test [7], in test [8] and in test [10] was > 100 µM (inactive) in each case. For the same compound, the GI50 in test [11] was > 100 µM (inactive); in test [13], > 100 µM (inactive); in test [14] it was 84.3 µM (inactive); in test [16], > 100 µM (inactive); in test [17], > 100 µM (inactive); in test [18], > 100 µM (inactive). The GI50 in [19] and in test [20] was > 100 µM (inactive) each time.

With `COC(=O)C1=C(O)c2cc3c(cc2[C@H](c2cc(OC)c(OC)c(OC)c2)C1)OCO3`, the GI50 was 58.5 µM (inactive) in test [1]; 19.3 µM (inactive) in [3]; 28.6 µM (inactive) in test [4]; 22.5 µM (inactive) in [7]; 34.7 µM (inactive) in test [8]; 87.7 µM (inactive) in test [10]. The GI50 in test [11] is 41.7 µM (inactive); in test [13] it was 32.5 µM (inactive); in [14] it was > 100 µM (inactive); in test [16], 51.5 µM (inactive); in test [17], 39.2 µM (inactive); in test [18], > 100 µM (inactive). Further, the GI50 in test [19] was > 100 µM (inactive); in test [20] it was 34.4 µM (inactive).

On to `Clc1ccc(OCc2nnc3n2N=C(c2ccccc2)CS3)cc1`, for which the GI50 is 16.2 µM (inactive) in test [1]; 15.3 µM (inactive) in [3]; 16 µM (inactive) in [4]; 12.7 µM (inactive) in [7]; 21.5 µM (inactive) in test [8]; 21.5 µM (inactive) in [10]. Also, the GI50 in [11] was 12.2 µM (inactive); in test [13], 15.6 µM (inactive); in test [14], 21.3 µM (inactive); in [16], 14.3 µM (inactive); in test [17], 21.8 µM (inactive); in test [18], 20.7 µM (inactive). The figures for the GI50 in [19] and in test [20] were 27 µM (inactive) and 27.3 µM (inactive), respectively.

In the case of `COC(=O)[C@@]12C(=O)C=CC(=O)[C@@H]1C1C(=CC2COC(C)=O)O[C@@H]2OC3(CCCCC3)O[C@H]12` (stereo partly specified), the GI50 in test [1] is 7.1 µM (inactive); in test [2] it was 13.2 µM (inactive); in [3], 5.77 µM (inactive); in [4], 8.61 µM (inactive); in test [5] it was 18.3 µM (inactive); in test [6], 9.46 µM (inactive). Moreover, the GI50 in [7] is 4.15 µM (inactive); in [8], 15.6 µM (inactive); in test [9] it was 12.6 µM (inactive); in [10], 17.2 µM (inactive); in test [11] it was 17.1 µM (inactive); in test [12], 12.8 µM (inactive). For the same compound, the GI50 was 5.24 µM (inactive) in [13]; 16.7 µM (inactive) in [14]; 12.6 µM (inactive) in test [15]; 14.2 µM (inactive) in [16]; 17.2 µM (inactive) in [17]; 16.1 µM (inactive) in [18]. In addition, the figures for the GI50 in [19] and in test [20] were 13 µM (inactive) and 8.38 µM (inactive), respectively.

Turning to `CCN(c1n[n+]2c(-c3ccccc3)csc2s1)c1n[n+]2c(-c3ccccc3)csc2s1`, the GI50 in [1] was > 100 µM (inactive); in test [3] it was 26.4 µM (inactive); in [4] it was 46.8 µM (inactive); in test [7] it was 17.5 µM (inactive); in test [8], 92.5 µM (inactive); in [10] it was > 100 µM (inactive). In addition, the GI50 in test [11] is 44.6 µM (inactive); in test [13], 35.4 µM (inactive); in test [14], > 100 µM (inactive); in [16], > 100 µM (inactive); in test [17], 79.1 µM (inactive); in test [18] it was > 100 µM (inactive). Besides, the GI50 in [19] and in test [20] was > 100 µM (inactive) in each case.
